Test system: MDA-MB-231 cells
Test: Microfluidic bi-directional migration (MBDM) assay, mean migration speed and persistence
Assay type: cell-based, human
From the text: To quantify the effects of iEF treatment on directed cell migration speed and persistence, a custom microfluidic bi-directional microtrack (MBDM) assay was developed that enables real-time monitoring with time-lapse microscopy of cell motility.
In this study, the EF sensing mechanisms of breast cancer cells in response to asymmetric iEFs (<100 μV/cm) was investigated. Using a MBDM assay, changes in the speed and persistence of spontaneously migrating MDA-MB-231 breast cancer cells were observed. This cell type was selected for these studies because it is a putative metastatic breast cancer cell line that is also responsive to gradients of a chemoattractant such as EGF (Wang S J, et al. (2004) Exp Cell Res 300 (1):180-189; Wu A, et al. (2013) Proc Natl Acad Sci U S A 110(40):16103-16108). […] This configuration enables direct comparison of cell movement in response to iEFs applied primarily with the direction of cell migration (“parallel”) or against the direction of cell migration (“anti-parallel”) within the same microfluidic device. Here, the field direction is defined as the direction that has the higher peak magnitude, as well as higher time-average field strength.
To calculate persistence, the following protocol was followed for each cell tracked in a microtrack of the MBDM assay. A cell starts at position Pt at time t. After a single time increment, dt, the cell moves to a new position, Pt+dt. The distance traveled during this time is the absolute difference in the two positions denoted as Li: Li=|Pt+dt−Pt|
The total distance traveled is then the sum of all distances traveled during N time increments denoted as Lt. Additionally, the total time of travel is the number of time increments multiplied by the size of the time increments denoted as Tt.
The displacement is simply the difference between the final and initial position: Ld=|PFinal−PInitial|
The MBDM assay was designed to have three ports separated by 700 μm long arrays of parallel microtracks (FIG. 1D). The dimension of each port was 50 mm×15 mm. Cells were seeded in the center port and the top and bottom ports were designated as cell collection port and/or chemokine source reservoir port depending on the experimental condition. Microchannels were designed to have a square cross-section of 20 μm×20 μm. The cross-section dimensions were on the same order as the size of single cells and mimic the dimensions of pre-existing microtracks available to cells in-vivo (Kraning-Rush C M, et al. (2013) lntegr Biol (Camb). 5 (3):606-616). Moreover, these migratory tracks are representative of physiologically relevant matrix metalloproteinase independent cancer-cell migration mode during metastasis (Friedl P & Alexander S (2011) Cell 147 (5):992-1009; Wolf K, et al. (2009) Semin Cell Dev Biol. 20 (8):931-941; Friedl P & Wolf K (2003) Nat Rev Cancer. 3 (5):362; Wolf K, et al. (2007) Nat Cell Biol. 9 (8):893; Wolf K, et al. (2003) J Cell Biol. 160 (2):267-277). The bi-directional design of this assay allows cells to migrate in either direction from the seeding port and provides a better understanding and quantification of the directional bias of external cues such as chemokine gradients and the directional effects of applied iEFs. The large ports for cell seeding ensure uniform seeding density, excellent cell viability, and repeatability.
Cells were washed in culture plates with 1×PBS solution, treated with 0.05% trypsin-EDTA solution (Sigma-Aldrich), and then counted using a hemocytometer. Cells (2×10^5) suspended in migration media were seeded in the middle port (seeding port) with an extremely small flow from the collection ports to the seeding port, which equilibrated in less than 15 minutes. The cells inside the devices were then incubated for 12 hours in migration media following which the media was aspirated and replaced with new media based on the experimental conditions. […]

[1] = MK2206 2.5 μM alone, no EGF, no iEF
[2] = MK2206 2.5 μM alone, under EGF gradient (25 ng/mL)
[3] = MK2206 2.5 μM plus anti-parallel iEFs, under EGF gradient
[4] = MK2206 2.5 μM plus parallel iEFs, under EGF gradient

## NC1(c2ccc(-c3nc4ccn5c(=O)[nH]nc5c4cc3-c3ccccc3)cc2)CCC1 [MK2206]
[1]
  increase of mean migration speed compared to untreated controls: 9%
  reduction of persistence compared to untreated controls: 31%
MK2206 2.5 μM alone, under EGF gradient
  reduction of persistence below EGF-gradient conditions: 9%
[2]
  mean migration speed: 0.36 μm/min
  reduction of mean migration speed compared to EGF-gradient condition: 16%
MK2206 2.5 μM co-applied with anti-parallel iEFs, no EGF
  persistence compared to MK2206 treatment alone: significantly increased
MK2206 2.5 μM co-applied with iEFs, parallel or anti-parallel, no EGF
  average migration speed compared to untreated controls: comparable modest decrease
[3]
  mean migration speed: 0.31 μm/min
  reduction of mean migration speed below EGF controls: 28%
  reduction of persistence from the EGF control: 26%
[4]
  mean migration speed: 0.26 μm/min
  reduction of mean migration speed below EGF controls: 40%
  reduction of persistence from the EGF control: 19%
MK2206 treatment, no exogenous EGF gradient
  directional response of migration speed to iEF: nullified
